From patent US20160176867A1, “MODIFIED BET-PROTEIN-INHIBITING DIHYDROQUINOXALINONES AND DIHYDROPYRIDOPYRAZINONES” (BAYER PHARMA AKTIENGESELLSCHAFT, priority 2013, published 2016)

Key:
[1] = biological target: T1, BRD4 bromo domain 1 [BRD4(1)] (Homo sapiens, UniProt O60885); experiment: BRD4/acetylated peptide H4 binding assay (TR-FRET), BRD4 bromo domain 1; details: inhibition of BRD4(1)/Ac-H4 peptide interaction
T1 construct: N-terminally His6-tagged BRD4(1) (amino acids 67-152); made in house; host or cells: E. coli
In short: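 TR-FRET (665/620 nm ratio) measuring displacement of biotinylated tetra-acetylated H4 peptide from His6-BRD4(1) (aa 67-152, E. coli; typically 10 nM) at pH 7.5. Compound (11 concentrations, 0.1 nM–20 μM, duplicates) was preincubated 10 min at 22°C, then 1 h at 22°C and ≥3 h at 4°C; IC50 from 4-parameter fit normalized to DMSO and no-BRD4 controls.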

[2] = test system: MOLM-13 cells; experiment: Cell proliferation assay (alamarBlue), MOLM-13; assay type: cell-based; details: Homo sapiens; MOLM-13 (acute myeloid leukaemia), 96 hours
Description: (§1) In accordance with the invention, the ability of the substances to inhibit cell proliferation was determined. Cell viability was determined by means of the alamarBlue® reagent (Invitrogen) in a Victor X3 Multilabel Reader (Perkin Elmer). The excitation wavelength was 530 nm and the emission wavelength […].
The MOLM-13 cells (DSMZ, ACC 554) were sown at a concentration of 4000 cells/well in 100 μl of growth medium (RPMI1640, 10% FCS) on 96-well microtitre plates.
(§2) After overnight incubation at 37° C., the fluorescence values were determined (CI values). Then the plates were treated with various substance dilutions (1E-5 M, 3E-6 M, 1E-6 M, 3E-7 M, 1E-7 M, 3E-8 M, 1E-8 M) and incubated at 37° C. over 96 hours (MOLM-13, B16F10, CHL-1 cells) or 120 hours (MOLP-8 cells). Subsequently, the fluorescence values were determined (CO values). For the data analysis, the CI values were subtracted from the CO values and the results were compared between cells which had been treated with various dilutions of the substance or only with buffer solution. The IC50 values (substance concentration needed for 50% inhibition of cell proliferation) were calculated therefrom.

[3] = test system: B16F10 cells; experiment: Cell proliferation assay (alamarBlue), B16F10; assay type: cell-based; details: Mus musculus, B16-F10; B16F10 (melanoma, BRAF wild-type), 96 hours
Description: as §1
The B16F10 cells (ATCC, CRL-6475) were sown at a concentration of 300-500 cells/well in 100 μl of growth medium (DMEM with phenol red, 10% FCS) on 96-well microtitre plates.
as §2

[4] = test system: CHL-1 cells; experiment: Cell proliferation assay (alamarBlue), CHL-1; assay type: cell-based; details: Homo sapiens; CHL-1 (melanoma, BRAF wild-type), 96 hours
Description: as §1
The CHL-1 cells (ATCC, CRL-9446) were sown at a concentration of 1000 cells/well in 100 μl of growth medium (DMEM with glutamine, 10% FCS) on 96-well microtitre plates.
as §2

SMILES	IC50 [1]	IC50 [2]	IC50 [3]	IC50 [4]
C[C@@H]1C(=O)N(C)c2ccc(Nc3cccc(S(=O)(=O)N[C@H]4CC[C@H](N5CCN(CC6CC6)CC5)CC4)c3)nc2N1Cc1ccccc1 [Example 38, 3-{[(3R)-4-benzyl-1,3-dimethyl-2-oxo-1,2,3,4-tetrahydropyrido[2,3-b]pyrazin-6-yl]amino}-N-{trans-4-[4-(cyclopropyl-methyl)piperazin-1-yl]cyclohexyl}-benzenesulphonamide]	19 nM	20 nM	190 nM	19 nM
CNS(=O)(=O)c1cccc(Nc2ccc3c(n2)N(C2CCOCC2)[C@H](C)C(=O)N3C)c1 [Example 39, 3-{[(3R)-1,3-dimethyl-2-oxo-4-(tetrahydro-2H-pyran-4-yl)-1,2,3,4-tetrahydropyrido[2,3-b]pyrazin-6-yl]amino}-N-methylbenzenesulphon-amide]	38 nM	90 nM	149 nM	63 nM
COc1ccc(S(=O)(=O)N2CCN(C)CC2)cc1Nc1ccc2c(n1)N(C1CCOCC1)[C@H](C)C(=O)N2C [Example 40, (3R)-6-({2-methoxy-5-[(4-methylpiperazin-1-yl)sulphonyl]phenyl}-amino)-1,3-dimethyl-4-(tetrahydro-2H-pyran-4-yl)-3,4-dihydropyrido[2,3-b]pyrazin-2(1H)-one]	43 nM	98 nM	314 nM	56 nM
C[C@@H]1C(=O)N(C)c2ccc(Nc3cccc(S(=O)(=O)N(C)C)c3)nc2N1C1CCN(C)CC1 [Example 41, 3-{[(3R)-1,3-dimethyl-4-(1-methylpiperidin-4-yl)-2-oxo-1,2,3,4-tetrahydropyrido[2,3-b]pyrazin-6-yl]amino}-N,N-dimethylbenzene-sulphonamide]	20 nM	22 nM	52 nM	21 nM
C[C@@H]1C(=O)N(C)c2ccc(Nc3cccc(S(=O)(=O)NCC4CCN(C)CC4)c3)nc2N1C1CCOCC1 [Example 44, 3-{[(3R)-1,3-dimethyl-2-oxo-4-(tetrahydro-2H-pyran-4-yl)-1,2,3,4-tetrahydropyrido[2,3-b]pyrazin-6-yl]amino}-N-[(1-methylpiperidin-4-yl)methyl]benzene-sulphonamide]	50 nM	253 nM	944 nM	362 nM
CC(C)CN1c2nc(Nc3cccc(S(=O)(=O)N[C@H]4CC[C@H](N5CCN(CC6CC6)CC5)CC4)c3)ccc2N(C)C(=O)[C@H]1C [Example 45, N-{trans-4-[4-(cyclopropylmethyl)-piperazin-1-yl]cyclohexyl}-3-{[(3R)-4-isobulyl-1,3-dimethyl-2-oxo-1,2,3,4-tetrahydropyrido[2,3-b]pyrazin-6-yl]amino}-benzenesulphonamide]	51 nM	126 nM	393 nM	81 nM
COc1ccc(S(=O)(=O)N2CCN(C)CC2)cc1Nc1ccc2c(n1)N(C1CCN(C)CC1)[C@H](C)C(=O)N2C [Example 46, (3R)-6-({2-methoxy-5-[(4-methylpiperazin-1-yl)sulphonyl]phenyl}-amino)-1,3-dimethyl-4-(1-methylpiperidin-4-yl)-3,4-dihydropyrido[2,3-b]pyrazin-2(1H)-one]	51 nM	45 nM	135 nM	64 nM
C[C@@H]1C(=O)N(C)c2ccc(Nc3cccc(S(=O)(=O)N4CCOCC4)c3)nc2N1C1CCN(C)CC1 [Example 47, (3R)-1,3-dimethyl-4-(1-methylpiperidin-4-yl)-6-{[3-(morpholin-4-ylsulphonyl)phenyl]-amino}-3-4-dihydropyrido-[2,3-b]pyrazin-2(1H)-one]	21 nM	51 nM	188 nM	20 nM
C[C@@H]1C(=O)N(C)c2ccc(Nc3cccc(S(=O)(=O)NC4CCN(C)CC4)c3)nc2N1C1CCCCCC1 [Example 48, 3-{[(3R)-4-cycloheptyl-1,3-dimethyl-2-oxo-1,2,3,4-tetrahydropyrido-[2,3-b]pyrazin-6-yl]amino}-N-(1-methylpiperidin-4-yl)benzenesulphonamide]	75 nM	240 nM	586 nM	111 nM
C[C@@H]1C(=O)N(C)c2ccc(Nc3cccc(S(=O)(=O)N4CCN(C)CC4)c3)nc2N1C1CCN(C)CC1 [Example 50, (3R)-1,3-dimethyl-6-({3-[(4-methylpiperazin-1-yl)sulphonyl]phenyl}-amino)-4-(1-methyl-piperidin-4-yl)-3,4-dihydropyrido[2,3-b]pyrazin-2(1H)-one]	76 nM	213 nM	727 nM	118 nM
C[C@@H]1C(=O)N(C)c2ccc(Nc3cccc(S(=O)(=O)N[C@H]4CC[C@H](N5CCN(CC6CC6)CC5)CC4)c3)nc2N1C1CCN(C(=O)OC(C)(C)C)CC1 [Example 52, tert-butyl 4-[(3R)-6-{[3-({trans-4-[4-(cyclo-propylmethyl)piperazin-1-yl]cyclohexyl}-sulphamoyl)phenyl]amino}-1,3-dimethyl-2-oxo-2,3-dihydropyrido[2,3-b]pyrazin-4(1H)-yl]piperidine-1-carboxylate]	80 nM	180 nM	569 nM	147 nM

Further lines, with some results ahead:

IC50 [1]	IC50 [2]	IC50 [3]	SMILES	IC50 [4]
106 nM	233 nM	164 nM	C[C@@H]1C(=O)N(C)c2ccc(N(C)c3cccc(S(=O)(=O)N(C)C)c3)nc2N1C1CCOCC1 [Example 54, 3-{[(3R)-1,3-dimethyl-2-oxo-4-(tetrahydro-2H-pyran-4-yl)-1,2,3,4-tetrahydropyrido[2,3-b]pyrazin-6-yl](methyl)-amino}-N,N-dimethyl-benzenesulphonamide]	156 nM
112 nM	239 nM	488 nM	C[C@@H]1C(=O)N(C)c2ccc(Nc3ccc4c(c3)S(=O)(=O)NC4)nc2N1C1CCOCC1 [Example 56, (3R)-6-[(1,1-dioxido-2,3-dihydro-1,2-benzothiazol-6-yl)amino]-1,3-dimethyl-4-(tetrahydro-2H-pyran-4-yl)-3,4-dihydropyrido[2,3-b]pyrazin-2(1H)-one]	181 nM
114 nM	193 nM	531 nM	C[C@@H]1C(=O)N(C)c2ccc(Nc3cccc(S(=O)(=O)NC4CCN(C)CC4)c3)nc2N1C1CCN(C(=O)OC(C)(C)C)CC1 [Example 57, tert-butyl 4-[(3R)-1,3-dimethyl-6-({3-[(1-methylpiperidin-4-yl)sulphamoyl]phenyl}-amino)-2-oxo-2,3-dihydro-pyrido[2,3-b]pyrazin-4(1H)-yl]piperidine-1-carboxylate]	175 nM
139 nM	378 nM	613 nM	C[C@@H]1C(=O)N(C)c2ccc(Nc3cccc(S(N)(=O)=O)c3)nc2N1C1CCOCC1 [Example 58, 3-{[(3R)-1,3-dimethyl-2-oxo-4-(tetrahydro-2H-pyran-4-yl)-1,2,3,4-tetrahydropyrido[2,3-b]pyrazin-6-yl]amino}-benzenesulphonamide]	299 nM
156 nM	516 nM	1140 nM	C[C@@H]1C(=O)N(C)c2ccc(Nc3cccc(S(=O)(=O)NCCN(C)C)c3)nc2N1C1CCN(C(=O)OC(C)(C)C)CC1 [Example 59, tert-butyl 4-[(3R)-6-[(3-{[2-(dimethylamino)ethyl]-sulphamoyl}phenyl)amino]-1,3-dimethyl-2-oxo-2,3-dihydropyrido[2,3-b]pyrazin-4(1H)-yl]piperidine-1-carboxylate]	204 nM
62 nM	250 nM	396 nM	C[C@@H]1C(=O)N(C)c2ccc(Nc3cccc(C(=O)N[C@H]4CC[C@H](N5CCN(CC6CC6)CC5)CC4)c3)nc2N1Cc1ccccc1 [Example 72, 3-{[(3R)-4-benzyl-1,3-dimethyl-2-oxo-1,2,3,4-tetrahydropyrido[2,3-b]pyrazin-6-yl]amino}-N-{trans-4-[4-(cyclo-propylmethyl)piperazin-1-yl]cyclohexyl}benzamide]	106 nM
77 nM	110 nM	468 nM	C[C@@H]1C(=O)N(C)c2ccc(Nc3cccc(C(=O)NC4CCN(C)CC4)c3)nc2N1Cc1ccccc1 [Example 73, 3-{[(3R)-4-benzyl-1,3-dimethyl-2-oxo-1,2,3,4-tetrahydropyrido[2,3-b]pyrazin-6-yl]amino}-N-(1-methylpiperidin-4-yl)benzamide]	80 nM
